Measurements from the NIST ThermoML archive (doi:10.1016/j.jct.2014.03.021).
± gives the expanded uncertainty stated by the source.

Columns and labels:
[1] = 101.33 kPa, Liquid; for electrical conductivity: Alternating current cell with electrodes; for speed of sound: Sing-around technique in a fixed-path interferometer; for mass density: Vibrating tube method
[2] = refractive index (Na D-line) (dimensionless); settings: 101.33 kPa, Liquid, Standard Abbe refractometry

Compound	mass density ([1]; 293.15 K)	mass density ([1]; 298.15 K)	mass density ([1]; 303.15 K)	mass density ([1]; 308.15 K)	speed of sound ([1]; 313.15 K)	mass density ([1]; 313.15 K)	mass density ([1]; 318.15 K)	speed of sound ([1]; 323.15 K)	mass density ([1]; 323.15 K)	refractive index ([2]; 293.15 K)	refractive index ([2]; 298.15 K)	refractive index ([2]; 303.15 K)	refractive index ([2]; 308.15 K)	refractive index ([2]; 313.15 K)	refractive index ([2]; 318.15 K)	refractive index ([2]; 323.15 K)	also measured
C[C@H](O)C(=O)[O-].C[N+](C)(C)CCO	1143.46 ± 7.1 kg/m3	1140.3 ± 7.1 kg/m3	1137.16 ± 7 kg/m3	1134.04 ± 7 kg/m3	1859.1 ± 5.2 m/s	1130.94 ± 6.9 kg/m3	1127.86 ± 6.9 kg/m3	1831.1 ± 5.2 m/s	1124.79 ± 6.9 kg/m3	1.48146 ± 0.001	1.48056 ± 0.001	1.47931 ± 0.001	1.47808 ± 0.001	1.47676 ± 0.001	1.47544 ± 0.001	1.47418 ± 0.001	electrical conductivity ([1]; 293.15 K): 0.0138 ± 0.00083 S/m; speed of sound ([1]; 293.15 K): 1935.6 ± 5.2 m/s; electrical conductivity ([1]; 298.15 K): 0.0219 ± 0.0013 S/m; speed of sound ([1]; 298.15 K): 1911.8 ± 5.2 m/s; electrical conductivity ([1]; 303.15 K): 0.0327 ± 0.002 S/m; speed of sound ([1]; 303.15 K): 1892 ± 5.2 m/s; electrical conductivity ([1]; 308.15 K): 0.0455 ± 0.0027 S/m; speed of sound ([1]; 308.15 K): 1874.8 ± 5.2 m/s; electrical conductivity ([1]; 313.15 K): 0.0647 ± 0.0039 S/m; electrical conductivity ([1]; 318.15 K): 0.0897 ± 0.0054 S/m; speed of sound ([1]; 318.15 K): 1844.8 ± 5.2 m/s; electrical conductivity ([1]; 323.15 K): 0.109 ± 0.0066 S/m
O [water]	998.738 ± 0.11 kg/m3	997.576 ± 0.11 kg/m3	996.181 ± 0.11 kg/m3	994.563 ± 0.11 kg/m3	1528.8 ± 1.2 m/s	992.744 ± 0.11 kg/m3	990.737 ± 0.11 kg/m3	1542.3 ± 1.2 m/s	988.556 ± 0.11 kg/m3	1.33299 ± 0.00031	1.33251 ± 0.00031	1.33197 ± 0.00031	1.33135 ± 0.00031	1.33065 ± 0.00031	1.3299 ± 0.00031	1.32911 ± 0.00031	
